From PubChem BioAssay AID248 (DTP/NCI, 2004)
Inconclusive results and toxic doses are left out. Cut-off read from the data, not from the text of the source: active = T/C of 150% or more; inactive = T/C below 125%.

Test system: L1210 leukemia ip in BDF1 mice, survival T/C
Experiment: NCI In Vivo Anticancer Drug Screen. Data for tumor model L1210 Leukemia (intraperitoneal) in B6D2F1 (BDF1) mice
Settings: endpoint: mean survival time, higher = longer survival
Outline: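 Transplanted-tumor mice were given test agent; controls received vehicle only. Survival readings from the two groups were divided (treated over control).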

[1] = dose: 100.0 mg/kg/injection, schedule: Q01DX001 (ip), vehicle: carboxymethylcellulose (CMC)
[2] = dose: 200.0 mg/kg/injection, schedule: Q01DX001 (ip), vehicle: carboxymethylcellulose (CMC)
[3] = dose: 400.0 mg/kg/injection, schedule: Q01DX001 (ip), vehicle: carboxymethylcellulose (CMC)
[4] = dose: 100.0 mg/kg/injection, schedule: Q01DX001 (ip), vehicle: saline
[5] = dose: 100.0 mg/kg/injection, schedule: Q04DX003 (ip), vehicle: saline
[6] = dose: 200.0 mg/kg/injection, schedule: Q01DX001 (ip), vehicle: saline
[7] = dose: 200.0 mg/kg/injection, schedule: Q04DX003 (ip), vehicle: saline
[8] = dose: 400.0 mg/kg/injection, schedule: Q01DX001 (ip), vehicle: saline
[9] = dose: 50.0 mg/kg/injection, schedule: Q01DX009 (ip), vehicle: Klucel (hydroxypropylcellulose) (HPC)
[10] = dose: 100.0 mg/kg/injection, schedule: Q01DX009 (ip), vehicle: Klucel (hydroxypropylcellulose) (HPC)
[11] = dose: 200.0 mg/kg/injection, schedule: Q01DX009 (ip), vehicle: Klucel (hydroxypropylcellulose) (HPC)
[12] = dose: 400.0 mg/kg/injection, schedule: Q01DX009 (ip), vehicle: Klucel (hydroxypropylcellulose) (HPC)
[13] = dose: 100.0 mg/kg/injection, schedule: Q04DX002 (ip), vehicle: Klucel (hydroxypropylcellulose) (HPC)
[14] = dose: 200.0 mg/kg/injection, schedule: Q04DX002 (ip), vehicle: Klucel (hydroxypropylcellulose) (HPC)
[15] = dose: 400.0 mg/kg/injection, schedule: Q04DX002 (ip), vehicle: Klucel (hydroxypropylcellulose) (HPC)
[16] = dose: 100.0 mg/kg/injection, schedule: Q04DX003 (ip), vehicle: Klucel (hydroxypropylcellulose) (HPC)
[17] = dose: 200.0 mg/kg/injection, schedule: Q04DX003 (ip), vehicle: Klucel (hydroxypropylcellulose) (HPC)
[18] = dose: 400.0 mg/kg/injection, schedule: Q04DX003 (ip), vehicle: Klucel (hydroxypropylcellulose) (HPC)

Measured: T/C

O=C(O)COc1ccc([N+](=O)[O-])cc1F
inactive: dose: 100.0 mg/kg/injection, schedule: Q04DX002 (ip), vehicle: other 102 % of control | dose: 200.0 mg/kg/injection, schedule: Q04DX002 (ip), vehicle: other 88 % of control | dose: 400.0 mg/kg/injection, schedule: Q04DX002 (ip), vehicle: other 91 % of control

CCN1CC1 (tested in a mixture with another compound)
inactive: dose: 1.56 mg/kg/injection, schedule: Q01DX001 (ip), vehicle: Klucel (hydroxypropylcellulose) (HPC) 101 % of control | dose: 3.12 mg/kg/injection, schedule: Q01DX001 (ip), vehicle: Klucel (hydroxypropylcellulose) (HPC) 99 % of control | dose: 6.25 mg/kg/injection, schedule: Q01DX001 (ip), vehicle: Klucel (hydroxypropylcellulose) (HPC) 104 % of control | dose: 25.0 mg/kg/injection, schedule: Q01DX001 (ip), vehicle: other 111 % of control

CCOP(=O)(OCC)Oc1ccc(SC)cc1
inactive: dose: 5.0 mg/kg/injection, schedule: Q01DX001 (ip), vehicle: saline 96 % of control | dose: 10.0 mg/kg/injection, schedule: Q01DX001 (ip), vehicle: saline 98 % of control

CC/C(=C(/CC)c1ccc(OP(=O)(O)O)cc1)c1ccc(OP(=O)(O)O)cc1
inactive: [1] 108 % of control | dose: 100.0 mg/kg/injection, schedule: Q01DX001 (ip), vehicle: water 101 % of control | dose: 100.0 mg/kg/injection, schedule: Q04DX003 (sc), vehicle: olive oil, sesame oil, peanut oil 103 % of control | [2] 95 % of control | dose: 200.0 mg/kg/injection, schedule: Q01DX001 (ip), vehicle: water 97 % of control | dose: 200.0 mg/kg/injection, schedule: Q04DX003 (sc), vehicle: olive oil, sesame oil, peanut oil 102 % of control | [3] 106 % of control | dose: 400.0 mg/kg/injection, schedule: Q01DX001 (ip), vehicle: water 98 % of control | dose: 400.0 mg/kg/injection, schedule: Q04DX003 (sc), vehicle: olive oil, sesame oil, peanut oil 107 % of control

Nc1ncn(C2OC(CO)C(O)C2O)n1 (stereo not given)
inactive: dose: 100.0 mg/kg/injection, schedule: Q01DX005 (ip), vehicle: saline 105 % of control | dose: 200.0 mg/kg/injection, schedule: Q01DX005 (ip), vehicle: saline 103 % of control

COc1ccccc1/C=C/c1ccnc2ccccc12
inactive: [4] 101 % of control | [5] 97 % of control | [6] 102 % of control | [7] 100 % of control | [8] 98 % of control | dose: 400.0 mg/kg/injection, schedule: Q04DX003 (ip), vehicle: saline 93 % of control

NC(=O)c1c[n+]([O-])ccn1
inactive: dose: 50.0 mg/kg/injection, schedule: Q04DX003 (ip), vehicle: saline 108 % of control | [4] 96 % of control | [5] 101 % of control | [6] 98 % of control | [7] 113 % of control

COc1cc2c(cc1OC)C(C=C(c1ccccc1)c1ccccc1)N(C)CC2 (stereo not given)
inactive: dose: 12.5 mg/kg/injection, schedule: Q01DX009 (ip), vehicle: Klucel (hydroxypropylcellulose) (HPC) 94 % of control | dose: 12.5 mg/kg/injection, schedule: Q04DX003 (ip), vehicle: Klucel (hydroxypropylcellulose) (HPC) 95 % of control | dose: 25.0 mg/kg/injection, schedule: Q01DX009 (ip), vehicle: Klucel (hydroxypropylcellulose) (HPC) 103 % of control | dose: 25.0 mg/kg/injection, schedule: Q04DX003 (ip), vehicle: Klucel (hydroxypropylcellulose) (HPC) 101 % of control | [9] 96 % of control | dose: 50.0 mg/kg/injection, schedule: Q04DX003 (ip), vehicle: Klucel (hydroxypropylcellulose) (HPC) 96 % of control

CC(=O)OCC(OC(C)=O)C(OC(C)=O)C(COC(C)=O)OC(C)=O (stereo not given)
inactive: dose: 25.6 mg/kg/injection, schedule: Q04DX002 (ip), vehicle: saline with Tween-80 108 % of control | dose: 64.0 mg/kg/injection, schedule: Q04DX002 (ip), vehicle: saline with Tween-80 104 % of control | dose: 160.0 mg/kg/injection, schedule: Q04DX002 (ip), vehicle: saline with Tween-80 93 % of control | dose: 400.0 mg/kg/injection, schedule: Q04DX002 (ip), vehicle: saline with Tween-80 93 % of control

NC(=O)NOCc1cscn1
inactive: [4] 95 % of control | [6] 97 % of control | [8] 97 % of control

Cc1cc(N(CCCl)CCCl)ccc1C=Nc1ccc(-c2nc(Cc3ccccc3)sc2C)cc1
inactive: [1] 117 % of control | [2] 98 % of control | [3] 110 % of control

CC12CCC(O)(CC1)CC2=O
inactive: dose: 75.0 mg/kg/injection, schedule: Q04DX002 (ip), vehicle: saline 95 % of control | dose: 150.0 mg/kg/injection, schedule: Q04DX002 (ip), vehicle: saline 95 % of control | dose: 300.0 mg/kg/injection, schedule: Q04DX002 (ip), vehicle: saline 103 % of control

Clc1cccc(N=Cc2ccc3c(c2)OCO3)c1Cl
inactive: [10] 97 % of control | [11] 94 % of control | [12] 100 % of control

CCOC(=O)c1c(-c2ccc([N+](=O)[O-])cc2)c(C#N)n(-c2ccccc2)c1C
inactive: [13] 95 % of control | [14] 92 % of control | [15] 103 % of control

CC(=O)[C@H]1[C@H](C)C[C@H]2[C@@H]3CCC4=CC(=O)CC[C@]4(C)[C@@]3(F)[C@@H](O)C[C@@]21C
inactive: [10] 103 % of control | [16] 100 % of control | [11] 101 % of control | [17] 97 % of control | [12] 97 % of control | [18] 101 % of control

CNc1ncnc(N(C)C)c1[N+](=O)[O-]
inactive: [9] 102 % of control | [10] 98 % of control | [11] 109 % of control

ON=c1c2ccccc2c2ccccc2c2ccccc12
inactive: dose: 75.0 mg/kg/injection, schedule: Q04DX002 (ip), vehicle: gum acacia 109 % of control | dose: 150.0 mg/kg/injection, schedule: Q04DX002 (ip), vehicle: gum acacia 105 % of control | dose: 300.0 mg/kg/injection, schedule: Q04DX002 (ip), vehicle: gum acacia 105 % of control

Cc1ccc(N=Nc2ccc(C)cc2NC(=O)/C=C/c2ccccc2)cc1
inactive: dose: 50.0 mg/kg/injection, schedule: Q01DX009 (ip), vehicle: saline with Tween-80 96 % of control | dose: 100.0 mg/kg/injection, schedule: Q01DX009 (ip), vehicle: saline with Tween-80 90 % of control | dose: 200.0 mg/kg/injection, schedule: Q01DX009 (ip), vehicle: saline with Tween-80 86 % of control

Cc1c(C2=NCC(C)S2)ccc(O)c1N (stereo not given)
inactive: dose: 62.5 mg/kg/injection, schedule: Q04DX002 (ip), vehicle: saline with Tween-80 93 % of control | dose: 125.0 mg/kg/injection, schedule: Q04DX002 (ip), vehicle: saline with Tween-80 90 % of control | dose: 250.0 mg/kg/injection, schedule: Q04DX002 (ip), vehicle: saline with Tween-80 93 % of control

CC(=O)c1ccc(Oc2ccccc2)cc1
inactive: [13] 104 % of control | [14] 93 % of control | [15] 110 % of control

CCCC1(CCC)c2ccccc2C(CCl)(OCC)c2ccccc21
inactive: dose: 100.0 mg/kg/injection, schedule: Q01DX009 (ip), vehicle: other 91 % of control | dose: 100.0 mg/kg/injection, schedule: Q04DX003 (ip), vehicle: other 100 % of control | dose: 200.0 mg/kg/injection, schedule: Q01DX009 (ip), vehicle: other 88 % of control | dose: 200.0 mg/kg/injection, schedule: Q04DX003 (ip), vehicle: other 103 % of control | dose: 400.0 mg/kg/injection, schedule: Q01DX009 (ip), vehicle: other 92 % of control | dose: 400.0 mg/kg/injection, schedule: Q04DX003 (ip), vehicle: other 95 % of control

NC(=S)N/N=C\c1ccccc1/C=N/NC(N)=S
inactive: dose: 50.0 mg/kg/injection, schedule: Q01DX001 (ip), vehicle: carboxymethylcellulose (CMC) 109 % of control | [1] 98 % of control | [2] 98 % of control | [3] 98 % of control

O=C1c2cc(Br)cc(Br)c2NCCCC1(Br)Br
inactive: [16] 94 % of control | [17] 97 % of control | [18] 94 % of control
